Test results from patent US5488033A, “Treatment to reduce edema” (The Regents of the University of California, priority 1994, dated 1996).
No end group written: not given here.

How the values were obtained:
[1] = test system: vascular leakage produced by PAF-acether; test: Vascular leakage produced by PAF-acether injected subcutaneously into the abdomen; format: in vivo, rat
Description: CRF: 30 μg/kg s.c. injected 30 minutes before subcutaneous
injection of PAF-acether (1 μg/0.1 ml/rat) into the abdomen;
muscle removed 0.5 hour later.

[2] = test system: cerebral cortex and basal ganglia (brain edema); test: Freeze injury of cerebral cortex, water and sodium content as index of brain edema; format: in vivo, rat; conditions: CRF 30 μg/kg s.c. 2×, ± S.E.M., N = 5
Description: In a second set of experiments, the brain surface, namely the cerebral cortex, was injured by freezing and the water and sodium content were measured in the cerebral cortex and in the basal ganglia, a part of the brain away from the freeze zone. The water and sodium content of the brain tissue served as an index of brain edema. After freeze injury, the water and sodium content of the cerebral cortex were evaluated relative to non-frozen tissues. CRF administered in two separate doses of 30 μg/kg subcutaneously, one dose 15 minutes before the injury and the second dose 90 minutes after the first dose, inhibited the two indices of brain edema.
Male SpragueDawley rats, 300-325 g, anesthetized with
ketamineacepromazine, were injected saline or CRF (30 μg/kg s.c.
2×) and injury to cerebral cortex was produced by applying a cold
probe to the skull for 1 min. Brain tissues were obtained 3 hr later and
analyzed for water and sodium content.

[3] = test system: abdominal muscle wall (vascular leakage after celiotomy); test: Vascular leakage after celiotomy (4 cm midline incision of abdominal muscle wall), Monastral blue; format: in vivo, rat; conditions: for Area / Intensity / Lesion Size: tissues 0.5 hour after surgery; for lesion size relative to that of the saline-treated group: celiotomy
Description: Experiments were conducted on male Sprague-Dawley rats 243±15 gm (S.D., Simonsen Labs., Gilroy, Calif.) anesthetized with sodium pentobarbital, 60 mg/kg i.p. Monastral blue, 60 mg/kg i.v., was injected 0.2 ml/100 g, 3 minutes before a 4 cm midline incision through the abdominal muscle wall (celiotomy). Saline or CRF was administered to randomized pairs with N=8 rats per group. The size of the lesion, measured as area in mm^2, and its light intensity, were quantified using the JAVA image-analysis software program. The light intensity, given in arbitrary units, was internally calibrated using Monastral blue solutions (1-30 mg/ml) placed on white filter paper. Values are mean ± S.E.M. FIG. 2 illustrates the respective amount of vascular permeability for one pair of rats (control and treated). Tables III and IV set out data from these experiments.
CRF: injected at various doses subcutaneously 30 minutes
before a 4 cm midline incision, tissues taken 0.5 hour
CRF: 30 μg/kg s.c. injected 2 hour before a 4 cm
midline incision, tissues taken 0.5 hour after surgery

[4] = test system: neutropenic rats infected with Pseudomonas; test: Neutropenic rat model of sepsis (Pseudomonas infection), survival; format: in vivo; conditions: CRF 100 μg/kg i.v. twice a day for four days after onset of fever; day 11; 9/15; P<0.002 vs saline (100% mortality by day 8)
Source text: The neutropenic rat model of sepsis, designed to mimic the systemic inflammatory response syndrome in humans, is described by Collins et al. from The Journal of Infectious Diseases, 159:6 (June 1989) and The Journal of Clinical Investigation, 88:885 (September 1991). […] The animals die from overwhelming infection within 7 to 9 days of infection and examination of the tissues with histological and pathological techniques reveal the characteristic organic manifestations of the systemic inflammatory response syndrome, namely, organ edema and tissue necrosis.
In a typical experiment, 10 rats serving as controls received saline and 15 rats received CRF at a dose of 100 μg/kg intravenously, given twice a day for four days after the onset of fever. At the end of 8 days, all of the animals in the control group were dead (100% mortality). By contrast, 60% (9/15) of the CRF group were still alive at day 11 when the experiment was concluded. The difference between the saline and CRF treated groups were statistically significant (P<0.002).

[5] = test system: Freeze Injury to Brain (vascular permeability of brain); test: Cold (freeze) injury to rat brain, vascular leakage by Monastral blue staining; format: in vivo
Source text: An in vivo model of injury to study brain edema has been developed as a reproducible edema model, which has the features of immediate cortical damage followed by the subsequent development of brain edema. This model is described by Chan et al., Brain Research, 277, pp. 329-337 (1983). The model uses rats which are anesthetized. A 2.5 cm incision is made over the sagittal suture and the bone of the right hemisphere exposed. A 60 mm^2 plate attached to a brass cup filled with dry ice-acetone mixture, with a temperature of -50° C., is applied to the rat skull for one minute. The animals are sacrificed at various intervals after the onset of cold-injury. A dye is administered intravenously before the freezing. Cortical slices are then obtained of the brain.
Sixteen male rats were randomly divided into eight pairs and one rat in each pair received either saline or CRF (subcutaneously twice at 30 μg/kg, 30 min and 10 min before cold injury). The animals were anesthetized with sodium pentobarbital, 60 mg/kg intraperitoneally, and injected with Monastral blue, 60 mg/kg intravenously. A cold probe was applied onto the skull for four minutes and the brains taken out one hour after cold injury. The staining of brain tissues with Monastral blue, a colloidal pigment that gets trapped between the albuminal surface of the endothelial cell and the basement membrane, was proportional to the degree of vascular leakage. The results from the first pair are shown as FIG. 1.
The size of the lesion, measured as area in mm^2, and the degree of staining intensity, were quantified using an image-analysis software program called JAVA (Jandel Corporation, San Rafael, Calif.). The stain intensity, given in arbitrary units, was internally calibrated using Monastral blue solutions (1-30 mg/ml) placed on white filter paper. Values are mean ± S.E.M.

[6] = CRF 30 μg/kg s.c. 30 minutes before PAF-acether 1 μg/0.1 ml/rat s.c., muscle removed 0.5 hour later
[7] = injured cerebral cortex, tissue 3 hr after 1 min cold probe
[8] = non-injured basal ganglia, tissue 3 hr after injury
[9] = CRF 15 μg/kg s.c. 30 minutes before incision
[10] = CRF 30 μg/kg s.c. 30 minutes before incision
[11] = CRF 30 μg/kg s.c. 2 hour before incision
[12] = CRF 60 μg/kg s.c. 30 minutes before incision
[13] = CRF 30 μg/kg s.c. twice, 30 min and 10 min before cold injury, brains taken 1 hour after injury, mean ± S.E.M.

CRF: 41 amino acid neuropeptide, mammalian corticotropin-releasing factor; stimulates ACTH release from pituitary cells (SEEPPISLDLTFHLLREVLEMARAEQLAQQAHSNRKLMEII; not fully specified; ends and bridges not checked; UniProt P06850 154-194, looked up)
muscle lesion size relative to that of the saline-treated control group ([1]; CRF 30 μg/kg s.c. 30 minutes before PAF-acether): 44%
Area [1, 6]: 188 ± 16 mm^2
Intensity [1, 6]: 1.4 ± 0.05
Lesion Size [1, 6]: 260 ± 26
SODIUM, cerebral cortex [2, 7]: 271 ± 8 mEg/kg dry wt
WATER CONTENT, cerebral cortex [2, 7]: 77 ± 4%
SODIUM, basal ganglia [2, 8]: 215 ± 9 mEg/kg dry wt
WATER CONTENT, basal ganglia [2, 8]: 76 ± 1%
Area [3, 9]: 505 ± 16 mm^2
Intensity [3, 9]: 2.0 ± 0.03 arbitrary units
Lesion Size [3, 9]: 1031 ± 44
Area [3, 10]: 361 ± 18 mm^2
Intensity [3, 10]: 1.9 ± 0.05 arbitrary units
Lesion Size [3, 10]: 676 ± 47
Area [3, 11]: 477 ± 31 mm^2
Intensity [3, 11]: 1.9 ± 0.03 arbitrary units
Lesion Size [3, 11]: 919 ± 51
Area [3, 12]: 257 ± 3 mm^2
Intensity [3, 12]: 1.8 ± 0.05 arbitrary units
Lesion Size [3, 12]: 468 ± 19
lesion size relative to that of the saline-treated group [3, 9]: 63%
lesion size relative to that of the saline-treated group [3, 10]: 42%
lesion size relative to that of the saline-treated group ([3]; CRF 30 μg/kg s.c. 2 hours before injury): 59%
lesion size relative to that of the saline-treated group [3, 12]: 29%
animals still alive (survival) [4]: 60%
Area [5, 13]: 20.8 ± 1.2 mm^2
Intensity (staining intensity) [5, 13]: 2.0 ± 0.05 arbitrary units
Lesion Size [5, 13]: 43 ± 3
lesion size relative to that of the saline-treated group ([5]; brain cold injury, CRF 30 μg/kg s.c. twice): 44%
correct assignment of brains to saline or CRF group by an observer unaware of pretreatment ([5]; eight pairs of rats, more damaged vs less damaged brain): 8 out of 8
